# Results taken from patent US11324858B2, “Biomaterials for enhanced implant-host integration” (Massachusetts Institute of Technology, priority 2012, dated 2022).
# “Also recorded” adds a separate entry of the source.
# Legend:
# hepatic aggregates = test: Diffusion of DAPI through ligated constructs after i.p. injection; assay type: in vivo, mouse; details: post i.p. injection, EC Cord Ligated procedure
# Description: FIGS. 16A-16B show the diffusion of small-molecule DAPI through ligated constructs. Constructs containing both hepatic aggregates and cords were implanted using procedures identical to those of the “EC Cord Ligated” control. Following implantation, the animals were injected i.p. with DAPI using the same volume and concentration typically used for luciferin administration. […] By 20 min post injection, DAPI-positive hepatic aggregates were identified throughout the constructs as shown by FIG. 16B.
# To explore whether this vascularization strategy has potential to enable applications such as human tissue replacement or humanized mouse models, it was tested whether coimplantation of EC cords can support primary human hepatocytes. […] To test whether enhanced hepatic function in animals with EC cords was the result of direct paracrine signaling between adjacent EC cords and hepatocytes or of improved access to a blood supply, the parametrial fat pad was severed upstream of the constructs immediately after implantation to reduce blood supply (“EC Cord Ligated”; FIG. 4E). Bioluminescence imaging was performed 20 min after luciferin injection at each time point, which was confirmed to be adequate time for diffusionbased permeation of the construct in ligated control tissues by DAPI (a small molecule similar in size to luciferin; FIG. 16).
# HUVECs and 10T1/2s = test: Cord formation/contraction of HUVEC and 10T1/2 cells in collagen within PDMS microchannels, with contractility inhibitors; assay type: cell-based, human, mouse; details: treated immediately after seeding; 20 μM blebbistatin or 25 μM Y27632
# Description: To test whether patterned endothelial cell (EC) cords induce vivo vessel formation in vivo, EC cords embedded in a fibrin matrix were implanted into the intraperitoneal space of nude mice (schematic, FIG. 1A). The cords were first prepared by seeding HUVECs and 10T1/2 cells suspended within collagen pre-polymer into a PDMS template and allowed to contract and remodel the collagen over a period of 4 hours. During this maturation period, the cells contracted against the matrix and each other, which caused the cords to shrink in diameter to approximately 50% of their original size (FIG. 1B). The HUVECs and 10T1/2 cells were mobile within the cords and also underwent some sorting during this time, with many of the 10T1/2 localizing to the periphery of the cords (FIG. 1C). […] After allowing the cords to contract, they were embedded into a larger fibrin gel (FIG. 1E) and prepared for implantation by attaching the samples to a polypropylene surgical mesh. The cords were implanted adjacent to a fat pad into athymic mice and resected at various time points. Tissues resected after 7 days, sectioned and stained with H&E indicated the presence of blood in areas where EC cords were initially present (FIG. 1F).
# Micropatterning of Endothelial cell cords. EC cords were micropatterned as previously described (2). […]
time to permeate construct and stain hepatic aggregates (hepatic aggregates),Structure (SMILES),cord formation / cord contraction under contractility inhibitor (HUVECs and 10T1/2s)
≤ 20 min,N=C(N)c1ccc(-c2cc3ccc(C(=N)N)cc3[nH]2)cc1 [DAPI],
,Cc1ccc2c(c1)C(=O)C1(O)CCN(c3ccccc3)C1=N2 (stereo not drawn) [blebbistatin],prevented their contraction and elongation of the cells along the collagen; also recorded: failed to form cords
,C[C@@H](N)[C@H]1CC[C@H](C(=O)Nc2ccncc2)CC1 [Y27632],failed to form cords
